Where two headings read alike, the source gives them in different places.
Tests used:
[1] = Population pharmacokinetic analysis; assay type: in vivo, human
[2] = adult subjects with T2D, cited from earlier work

Decrease in AUC24, pediatric age group ([1]; compared with an adult subject of the same weight and gender): 10%
Structure (SMILES): CCCCCCCCCCCCCCCC(=O)N[C@@H](CCC(=O)NCCCC[C@H](NC(=O)[C@H](C)NC(=O)[C@H](C)NC(=O)[C@H](CCC(N)=O)NC(=O)CNC(=O)[C@H](CCC(=O)O)NC(=O)[C@H](CC(C)C)NC(=O)[C@H](Cc1ccc(O)cc1)NC(=O)[C@H](CO)NC(=O)[C@H](CO)NC(=O)[C@@H](NC(=O)[C@H](CC(=O)O)NC(=O)[C@H](CO)NC(=O)[C@@H](NC(=O)[C@H](Cc1ccccc1)NC(=O)[C@@H](NC(=O)CNC(=O)[C@H](CCC(=O)O)NC(=O)[C@H](C)NC(=O)[C@@H](N)Cc1cnc[nH]1)[C@@H](C)O)[C@@H](C)O)C(C)C)C(=O)N[C@@H](CCC(=O)O)C(=O)N[C@@H](Cc1ccccc1)C(=O)N[C@H](C(=O)N[C@@H](C)C(=O)N[C@@H](Cc1c[nH]c2ccccc12)C(=O)N[C@@H](CC(C)C)C(=O)N[C@H](C(=O)N[C@@H](CCCNC(=N)N)C(=O)NCC(=O)N[C@@H](CCCNC(=N)N)C(=O)NCC(=O)O)C(C)C)[C@@H](C)CC)C(=O)O [liraglutide]
Geometric mean AUC24 lower at highest observed body weight (216 kg) ([1]; compared with exposure at reference body weight of 90 kg): 56% | Lower drug exposure (AUC24) for males ([1]; compared with the reference female subject of the same body weight): 31% | Mean decrease in glycated hemoglobin [HbA1c] ([2]; liraglutide 1.2 mg and 1.8 mg alone or in combination with other oral antidiabetic drugs and/or insulin): up to −1.5% | Safety and tolerability profile ([2]; liraglutide 1.2 mg and 1.8 mg): acceptable safety and tolerability profile | Mean weight loss ([2]; liraglutide 1.2 mg): ≤ -2.9 kg | Mean weight loss ([2]; liraglutide 1.8 mg): up to −3.4 kg

— paper PMC4449373 (Clinical Pharmacokinetics, 2015)
